Structures are written as SMILES. Where “and” joins values, the source holds several entries; their conditions need not be identical. Equal entries are not always repeated. Peptide text beside a SMILES is read from it.

Series [1] relates to naïve three-cysteine phage library. Put plainly: Plaque-forming assay, effect of bicyclisation reagent on phage infectivity. It is filed as cell-based, M13 bacteriophage. The note with it: 120 μM, 5 min exposure. The method, then:
bismuth(III). The reaction mixture was vortexed briefly once more and incubated at room […]
Modification with bismuth tripotassium dicitrate (gastrodenol)
Bismuth tripotassium dicitrate (gastrodenol) in ultrapure sterile water (50 mM) was added to the reduced phage solution while gently vortexing to a final volume of 1040 μL to obtain a final concentration of 120 μM bismuth(III). The reaction mixture was vortexed briefly once more and incubated at room temperature for 5 min.
Modification with sodium arsenite (NaAsO2)
Sodium arsenite (NaAsO2) in ultrapure sterile water (50 mM) was added to the reduced phage solution while gently vortexing to a final volume of 1040 μL to obtain a final concentration of 120 μM arsenic(III). The reaction mixture was vortexed briefly once more and incubated at room […]
An overnight culture of Escherichia coli ER2738 (New England Biolabs, E4104, USA), a strain commonly used for phage display, was prepared by growing the bacteria in tetracycline containing LB media at 37 °C for 16 h at 220 rpm. Aliquots of 3 mL of melted top agar were transferred into sterile polystyrene tubes (Corning, 352051, USA) and heated up to 50 °C on a dry bath (Thermo Fisher, 88870004, USA) until ready to use. A dilution series of the phage library was prepared as required, at a final volume of 1 mL, whereby a 10 μL portion of each phage dilution was added to 200 μL of the bacterial overnight culture, incubated for 5 min and transferred fully into a tube containing 3 mL top agar. The contents in the tube were gently mixed by vortexing and poured entirely on a warm LB/IPTG/X-Gal plate, allowing the top agar-mixture to spread evenly across the plate. The plate was allowed to solidify and left in an incubator oven overnight at 37 °C. The number of plaques was counted by selecting plates with plaques separated at a countable level.
The concentration of the original solution was then calculated in pfu/mL using the following equation (Supplementary Equation 1).
Supplementary Equation 1.
concentration of original phage library solution = number of plaques ∙ dilution factor [pfu/mL]
Effect of bicyclisation reagent on phage infectivity
To evaluate the impact of bismuth(III) and arsenic(III) on the infectivity of the naïve three-cysteine phage library, phage titres were measured both before and after the addition of the metal(loid).
Accordingly, for each modification experiment three 1000 μL aliquots of ~1011 pfu/mL of freshly amplified naïve phage library in PBS were set aside and subjected to a plaque-forming assay to determine their titre. Next, these library aliquots were individually exposed to either 120 μM bismuth(III) from BiBr3 (50 mM DMSO) or gastrodenol (50 mM in ultrapure water) or 120 μM arsenic(III) from NaAsO2 (50 mM in ultrapure water), with each reagent being used for the modification of three library aliquots. During addition of the thiophilic element, the reaction mixtures were briefly vortexed and incubated at room temperature for 5 min. Excess reagent was removed from the modified phage library solution using spin desalting columns (Thermo Fisher, 89883, USA) at 2000 × g for 2.5 min. The titre of the modified phage solution was subsequently determined using the plaque-forming assay, which was also performed in triplicate. A parallel experiment was conducted using the addition of PBS as the control. Phage titres before and after their respective modification were plotted in GraphPad Prism 10 (Dotmatics, USA) […]
Supplementary Fig. 20. […]

For the next series, the target named is T1, streptavidin (Streptomyces avidinii, UniProt P22629).
T1 construct: purchased New England Biolabs
T1 sequence (P22629 25-183): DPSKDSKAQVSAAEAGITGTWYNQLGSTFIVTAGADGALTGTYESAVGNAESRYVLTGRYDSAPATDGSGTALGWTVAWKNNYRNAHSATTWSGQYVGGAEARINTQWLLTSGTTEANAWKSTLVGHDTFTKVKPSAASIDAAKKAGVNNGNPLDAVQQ
Put plainly: biochemical. It is filed as binding. The method, then: SPR measurements were performed with 20 mM HEPES–KOH pH 7.4, 150 mM NaCl, 0.5 mM TCEP, 0.05% (v/v) polysorbate 20 as running buffer. For each experiment, 100–150 μg streptavidin in 10 mM sodium acetate pH 3.9 buffer was freshly immobilised on a sensor chip flow-cell using EDC/NHS chemistry at 25 °C in absence of TCEP. All binding experiments were conducted at 20 °C in single-cycle kinetics mode (Fig. 4, Supplementary Figs. 17, 18, Supplementary Data 2).
SPR experiments were performed on a Biacore 8K (Cytiva, USA) using a CM5 chip (Cytiva, 29104988, USA), onto which streptavidin (New England Biolabs, USA) was freshly immobilised using an amine coupling kit (Cytiva, USA) for each individual experiment. The instrument was operated using Biacore Insight 5 software (Cytiva, USA). The data were plotted and analysed in GraphPad Prism 10 (Dotmatics, USA) using the non-linear fit ‘one site – specific binding’ (Supplementary Equation 2). KD values of duplicate measurements are represented as the mean value ± standard deviation.
Supplementary Equation 2.
X = analyte concentration [µM]
RUmax = maximum response [RU]
KD = dissociation constant [µM]

Take `[Bi+3]` [Bi(III)]: the “effect on phage infectivity” value in series [1] is listed as “uncompromised”.

`O=C([O-])CC(O)(CC(=O)[O-])C(=O)[O-].O=C([O-])CC(O)(CC(=O)[O-])C(=O)[O-].[Bi+3].[K+].[K+].[K+]` [gastrodenol, bismuth tripotassium dicitrate]: the “effect on phage infectivity” value in series [1] is listed as “no relevant negative effect”.

`CSCC[C@@H]1NC(=O)[C@@H]2CCCN2C(=O)[C@H](Cc2c[nH]cn2)NC(=O)[C@H](CO)NC(=O)[C@@H](NC(=O)[C@H](C)N)C[S][Bi]2[S]C[C@@H](C(N)=O)NC(=O)[C@@H]3CCCN3C(=O)[C@H](Cc3ccccc3)NC(=O)CNC(=O)[C@H](CCC(=O)O)NC(=O)[C@H](C[S]2)NC1=O` [1b]: on streptavidin (SPR), the “affinity towards streptavidin (in words)” value is reported as “micromolar affinity”. Also, the Response was 6.1348 RU and 7.3042 RU at streptavidin (SPR, 0.390625 μM peptide); 7.9335 RU and 9.6048 RU on streptavidin (SPR, 0.78125 μM peptide); 11.7844 RU and 13.9912 RU at streptavidin (SPR, 1.5625 μM peptide); 18.5476 RU and 21.5419 RU at streptavidin (SPR, 3.125 μM peptide); 29.9992 RU and 34.3112 RU on streptavidin (SPR, 6.25 μM peptide); 48.2716 RU and 55.717 RU at streptavidin (SPR, 12.5 μM peptide). For the same molecule, the Response on streptavidin (SPR, 25 μM peptide) is 75.0467 RU and 86.4584 RU; on streptavidin (SPR, 50 μM peptide), 95.3416 RU and 109.542 RU; on streptavidin (SPR, 100 μM peptide), 110.889 RU and 126.3 RU.

Consider `O=[As][O-].[Na+]` [NaAsO2, sodium arsenite], for which the results for the “effect on phage infectivity” value in series [1] and in series [1] (listed as As(III)) were “no relevant negative effect” and “uncompromised”, respectively.

Consider `[Br][Bi]([Br])[Br]` [BiBr3, bismuth tribromide], for which the “effect on phage infectivity” value in series [1] is “no relevant negative effect”.

In turn, `C[C@H](N)C(=O)N[C@@H](CS)C(=O)N1CCC[C@H]1C(=O)N[C@@H](Cc1c[nH]cn1)C(=O)N1CCC[C@H]1C(=O)N[C@@H](CCC(N)=O)C(=O)N[C@@H](CS)C(=O)N[C@@H](CCC(=O)O)C(=O)N[C@@H](C)C(=O)N[C@@H](C)C(=O)N[C@@H](C)C(=O)N[C@@H](CS)C(N)=O` [compound 2] (H-ACPHPQCEAAAC-NH2) showed a Kd at streptavidin of 1520 µM. Besides, the “affinity of linear versus bicyclic peptide (in words)” value on streptavidin (SPR) is reported as “two orders of magnitude lower affinity”. Further, the Response on streptavidin (SPR, 15.625 μM peptide) was found to be 3.2958 RU; at streptavidin (SPR, 31.25 μM peptide), 3.9468 RU; on streptavidin (SPR, 62.5 μM peptide) it was 5.3014 RU; at streptavidin (SPR, 125 μM peptide), 8.119 RU; at streptavidin (SPR, 250 μM peptide), 13.0777 RU; at streptavidin (SPR, 500 μM peptide), 20.3557 RU. For the same molecule, the Response on streptavidin (SPR, 1000 μM peptide) was found to be 32.6253 RU; on streptavidin (SPR, 2000 μM peptide) it was 47.8172 RU; on streptavidin (SPR, 4000 μM peptide), 62.2756 RU.

Consider `CC(C)[C@@H]1NC(=O)[C@H](CCC(N)=O)NC(=O)[C@@H]2CCCN2C(=O)[C@H](Cc2c[nH]cn2)NC(=O)[C@@H](NC(=O)[C@H](C)N)C[S][Bi]2[S]C[C@@H](C(N)=O)NC(=O)[C@H](CCC(=O)O)NC(=O)[C@H]([C@@H](C)O)NC(=O)[C@@H]3CCCN3C(=O)[C@H](CO)NC(=O)[C@H](C[S]2)NC1=O` [4b], for which the “affinity towards streptavidin (in words)” value at streptavidin (SPR) is reported as “two-digit micromolar dissociation constants”. The Response on streptavidin (SPR, 0.78125 μM peptide) worked out at 5.1388 RU; at streptavidin (SPR, 1.5625 μM peptide) it was 8.1368 RU; on streptavidin (SPR, 3.125 μM peptide), 20.2314 RU; on streptavidin (SPR, 6.25 μM peptide), 72.2878 RU; at streptavidin (SPR, 12.5 μM peptide), 222.296 RU; at streptavidin (SPR, 25 μM peptide) it was 413.089 RU. Moreover, the Response on streptavidin (SPR, 50 μM peptide) stood at 508.05 RU; at streptavidin (SPR, 100 μM peptide), 531.655 RU; on streptavidin (SPR, 200 μM peptide), 538.328 RU.

`C[C@H](N)C(=O)N[C@H]1CS[As]2SC[C@@H](C(N)=O)NC(=O)[C@H](C)NC(=O)[C@@H]3CCCN3C(=O)[C@H](CCC(=O)O)NC(=O)[C@H]([C@@H](C)O)NC(=O)[C@H](CS2)NC(=O)[C@H](CC(N)=O)NC(=O)[C@H](CCC(N)=O)NC(=O)[C@@H]2CCCN2C(=O)[C@H](Cc2c[nH]cn2)NC1=O` [3a]: the Kd at streptavidin amounted to 11.7 µM. Besides, the “affinity towards streptavidin (in words)” value on streptavidin (SPR) was “micromolar affinity”. Further, the Response is 3.2004 RU and 3.5032 RU at streptavidin (SPR, 0.390625 μM peptide); 4.9583 RU and 6.3102 RU on streptavidin (SPR, 0.78125 μM peptide); 9.0442 RU and 11.2377 RU at streptavidin (SPR, 1.5625 μM peptide); 17.2093 RU and 20.7499 RU at streptavidin (SPR, 3.125 μM peptide); 31.5997 RU and 35.2522 RU at streptavidin (SPR, 6.25 μM peptide); 49.5222 RU and 52.7774 RU on streptavidin (SPR, 12.5 μM peptide). Moreover, the Response is 65.4485 RU and 68.0889 RU on streptavidin (SPR, 25 μM peptide); 75.5589 RU and 77.8751 RU on streptavidin (SPR, 50 μM peptide). Besides, the “more active than linear counterpart” value on streptavidin (ratio of KD, bicycle vs linear peptide) is reported as “approximately 80 times”.

The term Kd denotes the free concentration of one partner at which half of the binding sites on the other are occupied at equilibrium, for simple one-to-one binding.

The record behind these values is PMC11211329, “Phage-encoded bismuth bicycles enable instant access to targeted bioactive peptides” (Communications Chemistry, 2024).
